Columns and labels:
Acetylcholinesterase [1] = molecular target: T1, Acetylcholinesterase (Rattus norvegicus, UniProt P37136)
T1 sequence (P37136 whole entry): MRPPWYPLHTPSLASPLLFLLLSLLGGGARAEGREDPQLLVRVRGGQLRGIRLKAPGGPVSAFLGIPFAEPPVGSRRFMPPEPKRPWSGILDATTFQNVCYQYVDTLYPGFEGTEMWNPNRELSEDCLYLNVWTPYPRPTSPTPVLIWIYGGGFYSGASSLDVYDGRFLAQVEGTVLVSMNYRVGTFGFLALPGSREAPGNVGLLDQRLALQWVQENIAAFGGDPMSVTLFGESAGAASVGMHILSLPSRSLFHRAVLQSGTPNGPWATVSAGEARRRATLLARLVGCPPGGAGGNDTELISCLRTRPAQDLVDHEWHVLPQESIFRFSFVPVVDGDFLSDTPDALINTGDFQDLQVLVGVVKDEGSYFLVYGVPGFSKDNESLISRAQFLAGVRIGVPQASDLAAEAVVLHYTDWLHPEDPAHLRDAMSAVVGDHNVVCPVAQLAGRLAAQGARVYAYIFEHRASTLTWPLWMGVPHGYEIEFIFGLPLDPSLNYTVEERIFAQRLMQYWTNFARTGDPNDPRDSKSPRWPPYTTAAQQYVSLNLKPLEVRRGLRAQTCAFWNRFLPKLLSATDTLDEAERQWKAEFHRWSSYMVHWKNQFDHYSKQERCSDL
Description: Inhibition of AChE in rat cortex using acetylthiocholine iodide as substrate preincubated with enzyme for 10 mins prior to substrate addition by Ellman's colorimetric method

Acetylcholinesterase [2] = molecular target: T1, Acetylcholinesterase; test: Inhibition of AChE in rat cortex using acetylthiocholine iodide as substrate by double Lineweaver-Burk plot analysis

| SMILES | IC50 (Acetylcholinesterase [1]) [nM] | Ki (Acetylcholinesterase [2]) [nM] |
| --- | --- | --- |
| COc1cccc2c1C(=O)c1c(OC)cc(C[N+](C)(C)C)cc1C2=O | 540 |  |
| COc1cccc2c1C(=O)c1c(OC)cc(C[N+](C)(C)c3ccccc3)cc1C2=O | 13600 |  |
| O=C1c2cccc(O)c2C(=O)c2c(O)cc(C[n+]3ccccc3)cc21 | 90 | 279 |
| C[N+](C)(C)Cc1cc(O)c2c(c1)C(=O)c1cccc(O)c1C2=O | 3760 |  |
| C[N+](C)(Cc1cc(O)c2c(c1)C(=O)c1cccc(O)c1C2=O)c1ccccc1 | 25400 |  |
